Patent US10869884B2, “Cyclodextrin based polymers, methods, compositions and applications thereof” (ATEN PORUS LIFESCIENCES, priority 2016, dated 2020)

Columns and labels:
Assay type in all cases: in vivo, BALB/c mice
[1] = Body weight in the Adriamycin nephropathy (FSGS) dose response/frequency study; conditions: ADR mice, 40 mg/kg/day s.c., 10 weeks, compared to normal mice
Protocol: (§1) Experimental Protocol: 6 animals (BALB/c mice) per group of 6-7 weeks of age were used. Nephropathy was induced in all animals, except group 1 (normal control), with Adriamycin (ADR, 11 mg/kg, i.v., single dose) at dose volume of 6 ml/kg. Normal saline (0.9%) was used as vehicle for the reference and test compounds. Treatment was started 24 hours after Adriamycin injection. Groups of animals (n=6) were treated subcutaneously with vehicle, HBCD, Polymer A and Polymer B at the doses and regimens shown in FIG. 10, for 10 weeks. At the end of the study, animals were sacrificed by CO2 exposure, blood samples and kidneys were collected for the estimation of various biomarkers in serum.
Body weights: Body weights were measured at the beginning of study and weekly throughout for ten weeks (FIG. 11) to provide a general assessment of rodent health after therapy.

ADR-induced nephropathy [2] = test: Serum blood urea nitrogen (BUN) in the Adriamycin nephropathy (FSGS) model; conditions: ADR mice, 40 mg/kg/day s.c., end of study
Protocol: as §1
Serum Analysis: Serum samples were analysed in an Automated Clinical Chemistry Analyzer EM360, Transasia Bio-medicals Ltd, for albumin and creatinine. • (a) Blood Urea Nitrogen (BUN) assay to assess the level of kidney function was analysed by the GLDH Urease method using an Erba standard BUN kit. (FIG. 13). Administration of ADR to induce nephropathy increased blood urea nitrogen levels as one would expect from an impaired kidney. […] The combination of data from these studies serves to illustrate the potential of the polymers of the present disclosure as treatment options for kidney disease compared to known cholesterol clearance compounds.

ADR-induced nephropathy [3] = test: Kidney histopathology (H/E and PAS staining, mesangial expansion) in the Adriamycin nephropathy model; conditions: ADR mice, 40 mg/kg/day s.c. (group 3), 10 weeks
Protocol: as §1
Histopathology: At the end of the study, kidney samples were collected from each animal, fixed in 10% NBF (Neutral Buffered […]) and subjected to histopathology. Periodic acid-Schiff (PAS) or Hematoxylin and Eosin (H/E) staining of 4 micron-thick tissue sections was performed according to the standard protocols. Mesangial expansion area was determined based on the area of PAS staining.

Substance: hydroxypropyl β-cyclodextrin [HBCD]
- mean body weight [1]: largest drop in mean body weight without any substantial rebound
- serum blood urea nitrogen (BUN) level (ADR-induced nephropathy [2]): BUN levels return to that found for the control group
- kidney histopathology (glomeruli appearance) (ADR-induced nephropathy [3]): glomeruli that are normal in appearance
